Data: patent US20240390452A1, “Protective Agent Against Endothelial Dysfunction” (THE TRUSTEES OF THE UNIVERSITY OF PENNSYLVANIA, priority 2023, published 2024)
Entries after “also recorded” stand apart in the source; their conditions may differ.

What was measured:
lung oxidative injury = conditions: earlier work; cited from earlier work
[1] = test system: Human Pulmonary Microvascular Endothelial Cells (HPMVEC); assay type: cell-based; conditions: HPMVEC pre-treated 3 hrs with PIP-2 in liposomes (10 nM), then COVID-19 serum 1 hr; CellROX fluorescence
ICAM-1 = ICAM-1 immunostaining in HPMVEC exposed to COVID-19 serum; assay type: cell-based, human; conditions: HPMVEC pre-treated 3 hrs with PIP-2 in liposomes (10 nM), then COVID-19 serum; anti-ICAM immunostaining
Procedure: Primary cultures of Human Pulmonary Microvascular Endothelial Cells (HPMVEC) were grown in a T-25 culture dish and routinely maintained in Dulbecco's Modified Eagle Medium (DMEM) supplemented with 10% fetal bovine serum (FBS), 1× glutamax, 1× antibiotics, and endothelial cell growth supplement (Millipore Upstate). Cells were grown and maintained in 5% CO2 at 37° C. Once grown to the appropriate density, cells were then split and grown on coverslips in 35 mm petri dishes. Cells were then treated either with medium supplemented with 10% serum from healthy individuals or COVID-19 patients at admission to ICU and then monitored for ROS production and ICAM-1 induction as described below.
HPMVEC were incubated for one hour in the incubator at 37° C. and 5% CO2 with medium supplemented with 10% serum either from a healthy individual or from patients suffering from COVID-19. The serum replaced the FBS which was otherwise used as a supplement in DMEM. Post incubation, cells were either fixed for ICAM-1 immuno-staining or the cells were stained for ROS measurement as described below. Serum from one healthy individual and seven COVID-19 patients were used in this study.
HPMVEC were incubated for three hours in the incubator at 37° C. and 5% CO2 with medium supplemented with either liposomes alone or PIP-2 in liposomes (concentration 10 nM) without 10% FBS. […]

[2] = test system: NLRP3 subunit of the inflammasome; test: NLRP3 immunostaining in cells exposed to COVID-19 serum; assay type: cell-based, human; conditions: cells pre-treated 3 hrs with PIP-2, then COVID-19 serum 1 hr; anti-NLRP3 immunostaining
Procedure: (§1) Cells were pre-treated for 3 hrs with PIP-2 and then with COVID-19 serum/normal serum for an hour. Cells were then fixed and NLRP3/caspase-1 were monitored by immunostaining with anti-NLRP3 or activated caspase-1 antibody. FIG. 4A: NLRP3 immunostaining. FIG. 4B: Quantification of the fluorescent signal using Metamorph imaging software *p<0.001. FIG. 4C: Caspase-1 immunostaining. FIG. 4D: Quantification of the fluorescent signal using Metamorph imaging software *p<0.05.
(§2) HPMVEC were incubated for three hours in the incubator at 37° C. and 5% CO2 with medium supplemented with either liposomes alone or PIP-2 in liposomes (concentration 10 nM) without 10% FBS. After 3 hours of incubation, cells were either treated with serum of a healthy individual or COVID-19 patients at admission to ICU along with either liposomes alone or PIP-2 in liposomes together for one hour and three hours for ROS measurement and ICAM-1 induction respectively.

caspase-1 = test: Activated caspase-1 immunostaining in cells exposed to COVID-19 serum; assay type: cell-based, human; conditions: cells pre-treated 3 hrs with PIP-2, then COVID-19 serum 1 hr; activated caspase-1 antibody immunostaining
Procedure: as §1, §2

[3] = target: T1, phospholipase A2 (PLA2) activity of peroxiredoxin 6 (Prdx6) (Homo sapiens, UniProt P30041); conditions: earlier work / WO 2020/037146 A1; cited from earlier work
T1 sequence (P30041 1-224): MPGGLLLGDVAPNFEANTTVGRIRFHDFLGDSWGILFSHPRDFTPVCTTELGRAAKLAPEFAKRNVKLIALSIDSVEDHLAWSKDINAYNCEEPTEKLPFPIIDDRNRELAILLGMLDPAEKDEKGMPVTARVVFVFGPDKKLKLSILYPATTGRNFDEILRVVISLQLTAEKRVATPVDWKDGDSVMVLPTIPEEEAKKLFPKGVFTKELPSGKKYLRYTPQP

Compound | protection against lung oxidative injury (lung oxidative injury) | ROS production (endothelial activation) post COVID-19 serum exposure [1] | ICAM-1 expression (endothelial inflammatory phenotype) (ICAM-1) | NLRP3 expression [2] | caspase 1 expression (caspase-1) | inhibition of PLA2 (aiPLA2) activity of Prdx6 [3]
CCCCCCCCCCCCCCCCOCC(COCC(F)(F)F)OP(=O)(O)OC (stereo not drawn) [MJ33] | able to protect against lung oxidative injury | – | – | – | – | –
LHDFRHQIL (in liposomes) [PIP-2, tested in liposomes] | – | protected the endothelium from activation; also recorded: significant decrease; also recorded: decreased; also recorded: able to reduce the endothelial activation; also recorded: significantly reverse | prevented the appearance of an endothelial inflammatory phenotype; also recorded: significantly reduced; also recorded: decreased; also recorded: significantly reverse | significantly reduced; also recorded: decreased | significantly reduced; also recorded: decreased | specific for inhibition of aiPLA2 activity
